Source: patent US20090093538A1, “Method for treating cancer” (priority 2007, published 2009)
Entries after “also recorded” stand apart in the source; their conditions may differ.

Columns and labels:
[1] = system: Hsp70; assay: Hsp70 RNA induction, quantitative PCR, Hs294T cells; assay type: cell-based, human; conditions: Compound 1 100 nM, 6 hours
Experimental: […] 500 ng of RNA from each sample was used for cDNA synthesis using iScript cDNA Synthesis Kit (Biorad, Cat# 170-8891). 1 uL of cDNA mixture was used with the iQ SYBR Green Supermix (Biorad, Cat# 170-8882) to perform quantitative PCR in an iCycler machine (Biorad) using standard protocols. QPCR for each sample/time point was performed in duplicate. The following primers for inducible human Hsp70 and gapdh were used:
Ct values were obtained from the iCycler program and used in an equation (2^−ΔΔCT) for determining the amount of target relative to gapdh expression. This compares the relative expression of Hsp70 to the corresponding levels of gapdh in each sample. Duplicate wells were averaged and graphed with their corresponding standard deviation.
Activation of HSF-1 by oxidative stress has been reported in the literature to require p38 kinase signaling in some cell lines.

[2] = system: HSB2 cells; assay: Apoptosis, Annexin V / propidium iodide FACS; assay type: cell-based; conditions: for relative levels of apoptotic cells: agent alone, without Compound 1
Experimental: (§1) To confirm that the ability of NAC to block Compound 1-induced cell death was not cell-line specific, we examined the role of oxidative stress in two additional cell lines by FAC analysis. RAMOS and HSB2 cells (ATCC) were seeded in 6-well plates at 1×10^6 cells/well/4 mL and incubated at 37° C. for 4 hours. […] After incubation the cells were stained with Annexin V and propidium iodide (Vybrant Apoptosis assay kit, Cat# V13241, Invitrogen, Molecular Probes) for measuring apoptotic cells by FACS analysis.
The cells were harvested and stained with Annexin V and propidium iodide for measuring apoptotic cells by FACS analysis.

[3] = system: Ramos cells; assay: ROS generation, carboxy-H2DCFDA probe, flow cytometry; assay type: cell-based
Experimental: In these experiments, we monitored the production of ROS using the cell permeable Carboxy-H2DCFDA probe. When this probe is oxidized by ROS, it emits a green fluorescence that can be detected using flow cytometry or fluorescent microscopy. […] 25 μM carboxy-H2DCFDA (Invitrogen. C400) working solution was added to cover the cells, and the cells were incubate for 30 minutes at 37° C., protected from light. The cells were gently washed three times in warm HBSS/Ca/Mg. ROS levels, as determined by fluorescence intensity, were determined by flow cytometry (excitation at 495 nm, emission at 529 nm).
(§2) Tiron is a direct scavenger of ROS and is a potent inhibitor of oxidative stress.
Ramos cells were treated with elesclomol (500 nM) for the indicated times then washed gently once with warm HBSS/Ca/Mg (Invitrogen Carlsbad, Calif. Cat# 14025). 25 μM carboxy-H2DCFDA (Invitrogen Cat #C400) working solution was added to cover the cells and they were incubated for 30 minutes at 37° C., protected from light. The cells were gently washed three times in warm HBSS/Ca/Mg. ROS levels (fluorescence intensity) were determined by flow cytometry (excitation at 495 nm, emission at 529 nm) using a Becton Dickinson FACSCalibur equipped with CellQuest Pro software. Data is plotted as percent of elesclomol-treated cells with DCFDA fluorescence relative to DMSO (control) treated cells (see FIG. 49).

[4] = system: MDA-MB-435 cells; assay: Cell viability (Cell Counting Kit-8); assay type: cell-based, human; conditions: […] NAC, 500 nM Compound 1, 72 hours
Experimental: The cells were further cultured at 37° C. for 72 hours and cell viability was measured with Cell Counting Kit-8 (Dojindo Laboratories, Cat# CK04).

[5] = system: Hs294T (or MDA-MB-435) cells; assay: Affymetrix transcriptional profiling; assay type: cell-based, human; conditions: Hs294T cells; NAC 5 mM 30 minutes prior to Compound 1 100 nM; 6 hours
Experimental: RNA was isolated from the cells 6 hours after treatment using the RNeasy kit according to the manufacturers instructions (Qiagen Cat. # 71404) and RNA quality was confirmed by spectrophotometric examination. cDNA was synthesized using the One-Cycle cDNA Synthesis Kit (Affymetrix Cat. # 900431) according to the manufacturers instructions. cDNA was labeled using the GeneChip IVT Labeling Kit (Affymetrix Cat. #900449) and analyzed in duplicate on the Affymetrix Human Genome U133Plus 2.0 gene chip array according to standard Affymetrix protocols. Data sheets from the Affymetrix Gene Chip Scanner 3000 were imported into Microsoft Excel and filtered by the following criteria: greater than or equal to 1.5 fold increase, greater than or equal to 0.4SE between replicates; and 50 (low stringency) or 500 (high stringency) for the lowest signal.
NAC is the rate-limiting amino acid for the production of the antioxidant glutathione. Addition of NAC to cells increases the levels of endogenous glutathione which in turn blocks oxidative stress and ROS generation. […] RNA was isolated from the cells 6 hours after treatment and Affymetrix analysis was performed as above.

[6] = system: Ramos cells; assay: Apoptosis, Annexin V / propidium iodide FACS; assay type: cell-based; conditions: 5 mM NAC
Experimental: as §1

[7] = system: Stage 1V metastatic melanoma
Experimental: A phase II clinical trial was conducted in patients that had Stage 1V metastatic melanoma patients.
Patients were treated until progression of the disease. […] The tumor assessments were performed at baseline, Cycle 2, and every other Cycle thereafter.

[8] = in vivo
[9] = system: MAPKAPK-2; assay: MAPKAPK-2 phosphorylation, Western blot, CEM and CV-1 cells; assay type: cell-based; conditions: 20 μM SB203580, 0.1 or 0.5 μM Compound 1
Experimental: (§3) After treatment the cells were lysized and used for Western blot analysis.
(§4) Samples were run on a SDS-PAGE gel and proteins were transferred onto a nitrocellulose membrane by a semi-dry transfer. Nitrocellulose was blocked with 5% skim milk in TBS with 0.5% Tween at room temperature for 1 hour and then probed with anti-p-MAPKAPK-2 (Thr334) (#3041, Cell Signaling) antibody. Tubulin was used as a normalization control and was probed with Anti-Tubulin (T9026, Sigma) antibody.

[10] = system: MSK1; assay: MSK1 phosphorylation, Western blot, MDA-MB-435 cells; assay type: cell-based, human; conditions: 20 μM SB203580, 0.1 or 0.5 μM Compound 1
Experimental: as §3
Samples were run on a SDS-PAGE gel and proteins were transferred onto a nitrocellulose membrane by a semi-dry transfer. Nitrocellulose was blocked with 5% skim milk in TBS with 0.5% Tween at room temperature for 1 hour and then probed with anti-p-MSK1 (Thr581) (#9595, Cell Signaling) antibody. The nitrocellulose was then probed with secondary antibodies, HRP-conjugated goat anti-rabbit IgG and HRP-conjugated horse anti-mouse IgG (#7074, #7076, Cell Signaling). LumiGLO reagent, 20× Peroxide (#7003, Cell Signaling) was used to visualize gel (see FIG. 36).
as §4, with “anti-p-MSK1 (Thr581) (#9595,” for “anti-p-MAPKAPK-2 (Thr334) (#3041,”

[11] = system: HSB2 cells; assay: Apoptosis, Annexin V / propidium iodide FACS; assay type: cell-based; conditions: p38 inhibitor 20 μM plus Compound 1 0.2 μM
[12] = system: Hsp70; assay: Hsp70 induction by Compound 1 in the presence of Tiron; assay type: cell-based; conditions: Tiron (FIG. 45)
Text: as §2

[13] = system: cytochrome c and caspase 3; assay: Apoptotic markers, Western blot, Ramos cells; assay type: cell-based; conditions: 100 nM
Experimental: Ramos cells were plated for 3 hours then treated with 100 nM elesclomol for the indicated times. To determine cytochrome c levels in the cytoplasm and mitochondria (a) Ramos cells were fractionated using the method detailed in (Hase et al, Journal of Biol. Chem. Vol. 277, pp. 46950-58, 2002) and western blots were probed with Cytochrome C primary antibody (BD Pharmingen, clone 7H8.2; C12). All Western blots were probed with secondary antibodies conjugated to HRP (Cell Signaling) and visualized using Lumiglo (Cell Signaling) peroxide reagents. Images were captured from the Kodak Image Station 440. For Caspase 3 analysis (b), whole cell lysates were isolated using 1× cell lysis buffer (Cell Signaling, Danvers, Mass.) plus protease inhibitors (Calbiochem, San Diego, Calif.). 30 ug of protein was run on a 4-12% Nupage gel (Invitrogen) and immunoblotted using standard procedures. The blots were probed with Caspase 3 antibody (9662) and cleaved Caspase 3 primary antibodies (9661) both from Cell Signaling.

[14] = RECIST, Efficacy Sample, patients (percent)

SMILES: CC(=O)N[C@@H](CS)C(=O)O [NAC, N-acetyl-cysteine, reference compound]
- inhibition of Hsp70 induction by Compound 1 ([1]; 5 mM NAC): complete inhibition in Hsp70 induction; also recorded: completely inhibited
- early apoptotic cells ([2]; NAC 5 mM alone): 11%
- relative levels of apoptotic cells [2]: little or no effect
- block of ROS generation by Compound 1 ([3]; 1.0 mM or 10 mM NAC 1 hour prior to Compound 1 0.5 μM): almost completely blocked the generation of ROS by Compound 1
- block of Compound 1-induced cell death [4]: completely blocked the ability of Compound 1 to induce cell death
- effect of NAC on genes induced by Compound 1 [5]: inhibited the genes most robustly induced by Compound 1
- inhibition of Compound 1-induced early apoptotic signaling [6]: completed inhibited early apoptotic signaling

SMILES: CC(=O)O[C@H]1C(=O)[C@@]2(C)[C@H]([C@H](OC(=O)c3ccccc3)[C@]3(O)C[C@H](OC(=O)[C@H](O)[C@@H](NC(=O)c4ccccc4)c4ccccc4)C(C)=C1C3(C)C)[C@]1(OC(C)=O)CO[C@@H]1C[C@@H]2O [Paclitaxel, paclitaxel]
- CR + PR (95% CI) ([7]; RECIST, Efficacy Sample): 3.7% (0.1%,19.0%)
- Best Overall Response: Complete Response (CR) [7, 14]: 0
- Best Overall Response: Partial Response (PR) [7, 14]: 1 (3.7%)
- Best Overall Response: Progressive Disease (PD) [7, 14]: 16 (59.3%)
- number of patients with partial response ([7]; Table 5): 1 patient
- patients with progressive disease ([7]; Table 5): 59.3%
- patients with stable disease ([7]; Table 5): 37%
- dose limiting toxicities [8]: dose limiting toxicities occurred in a single patient in each of the top three dose levels

SMILES: C[S+]([O-])c1ccc(-c2nc(-c3ccncc3)c(-c3ccc(F)cc3)[nH]2)cc1 (stereo not drawn) [SB203580, reference compound]
- inhibition of Hsp70 induction by Compound 1 ([1]; p38 inhibitor 20 uM): robust decrease in Hsp70 induction
- relative levels of apoptotic cells [2]: little or no effect
- block of Compound 1 induced phosphorylation of MAPKAPK-2 [9]: blocked
- block of Compound 1 induced phosphorylation of MSK1 [10]: blocked
- effect of p38 inhibitor on apoptosis induced by Compound 1 [11]: did not effect induction of apoptosis by Compound 1

SMILES: O=S(=O)(O)c1cc(O)c(O)c(S(=O)(=O)O)c1 [Tiron, reference compound]
- block of ROS generation by Compound 1 ([3]; 500 mM Tiron 1 hour prior to Compound 1 0.5 μM, 24 hours): blocked the ability of Compound 1 to generate ROS
- block of induction of Hsp70 by Compound 1 [12]: blocks the induction of Hsp70 by Compound 1

SMILES: CN(NC(=O)CC(=O)NN(C)C(=S)c1ccccc1)C(=S)c1ccccc1 [elesclomol]
- time post treatment at which cytochrome c and caspase 3 start to be activated [13]: 6 h
- accumulation of ROS ([3]; 500 nM, time course): induces accumulation of ROS in cells shortly after drug treatment
